This note sets out measurements from PMC4232273 (Angewandte Chemie (International Ed. in English), 2014).

For this assay, the target named is New Delhi metallo-β-lactamase subclass 1 (NDM-1) (Klebsiella pneumoniae, UniProt C7C422). Briefly: 1H NMR monitoring of hydrolysis in E. coli cells expressing NDM-1. The assay is classed as cell-based.
Chain of New Delhi metallo-β-lactamase subclass 1 (NDM-1) (C7C422 29-270, looked up): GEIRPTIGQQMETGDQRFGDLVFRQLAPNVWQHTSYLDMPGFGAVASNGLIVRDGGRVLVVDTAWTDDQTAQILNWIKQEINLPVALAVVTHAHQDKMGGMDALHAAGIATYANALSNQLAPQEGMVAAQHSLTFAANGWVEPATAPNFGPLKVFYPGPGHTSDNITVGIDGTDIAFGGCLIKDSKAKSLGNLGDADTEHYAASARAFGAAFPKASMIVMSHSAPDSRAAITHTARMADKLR

Regarding `C[C@@H](O)[C@H]1C(=O)N2C(C(=O)O)=C(SCCN=CN)C[C@H]12` [imipenem], the “1H NMR monitoring of hydrolysis in E. coli cells expressing NDM-1” value is reported as “These were readily hydrolyzed by the NDM-1 E. coli cells within an hour or so under our experimental conditions”.
